Measured values: article PMC8070745, “FEN1 Blockade for Platinum Chemo-Sensitization and Synthetic Lethality in Epithelial Ovarian Cancers” (Cancers, 2021)

Key:
Format in all cases: cell-based, human
[1] = system: PEO4 cells; assay: Cell cycle progression, PEO4; conditions: FEN1i plus cisplatin
Description: (§1) with ice cold PBS and fixed in 70% ethanol for 1h at -20°C. After removal of the fixative solution by centrifugation, cells were stained with 2 µg/ml of phospho-Histone (γH2AX) Ser139 (16202A, Millipore, UK) to detect DSBs.
Cell cycle progression: Cells were treated with 20 µg/ml RNase A (12091021, Invitrogen) and then 10 µg/ml Propidium Iodide (P4170, Sigma Aldrich) was added to determine the cell cycle distribution. The samples were analysed on a Beckman-Coulter FC500 flow cytometer using a 488nm laser for excitation and emission data for PI collected using a 620nm bandpass filter (FL3) and a 525nm bandpass filter (FL1) for FITC-anti-phospho-Histone H2A.X. […]
Graphical representation and statistical analysis was performed in GraphPad Prism 7 (GraphPad, La Jolla, USA).
3D Spheroid assays: A2780_control and A2780 FEN1_ KO as well as A2780cis_control and A2780cis FEN1_ KO cells were seeded at 4500 cells/cm2 density in ultra-low attachment 6-well plates (174932, Thermo Fisher Scientific) and cultured in 3D Tumorsphere Medium (C28070, PromoCell, UK) at 37°C in a 5% CO2 atmosphere. Cells were keep in culture for 7-10 days, toping up with fresh medium every two days until spheroids structures were formed.

[2] = system: PEO1 spheroids; assay: 3D spheroid assay, PEO1; conditions: PEO1 spheroids vs PEO4 spheroids
Description: as §1
Cell cycle progression: Cells were treated with 20 µg/ml RNase A (12091021, Invitrogen) and then 10 µg/ml Propidium Iodide (P4170, Sigma Aldrich) was added to determine the cell cycle distribution. The samples were analysed on a Beckman-Coulter FC500 flow cytometer using a 488nm laser for excitation and emission data for PI collected using a 620nm bandpass filter (FL3) and a 525nm bandpass filter (FL1) for FITC-anti-phospho-Histone H2A.X.
Apoptosis detection: Annexin V detection kit (556547, BD Biosciences) was used to quantify apoptotic cells. Briefly, cells were trypsinized, washed with PBS and the cellular pellet was re-suspended in Anexin Binding Buffer (1×). […] All the samples were analysed on a Beckman-Coulter FC500 flow cytometer. The percentage of apoptotic cells was determined (late apoptotic = FITC-Annexin V positive, PI positive early apoptotic = FITC-Annexin V positive, PI negative; live cells = FITC-Annexin V negative, PI negative) and compared for untreated and treated samples. […]
To quantify cell viability, LIVE/DEAD Viability/Cytotoxicity Kit (L3224, Thermo Fisher Scientific) was used. […] At least 10 spheroids were measured. […]

[3] = system: FEN1 mRNA in A2780cis cells; assay: qRT-PCR FEN1 mRNA expression, A2780cis; conditions: 24 h exposure to cisplatin
Description: (1:200, ab26343). Infrared dye-labelled secondary antibodies (Li-Cor) [IRDye 800CW Donkey Anti-Rabbit IgG and IRDye 680CW Donkey Anti-Mouse IgG] were incubated at a dilution of 1:10000 for 1 h. Membranes were scanned with a LiCor Odyssey machine (700 and 800 nm) to determine protein expression. ß-Tubulin or ß-actin was used as a loading controls for the whole cell lysates. GADPH and YYI were used as loading controls to cytoplasmic and nuclear fractions, respectively. First incubation was with FEN1 antibody and then imaged. This was followed by incubation with loading control and then imaged for analysis. Bar charts show means of optical density (O.D.) ± S.D and all data is representative of at least three independent experiments. qRT-PCR analysis of FEN1 gene expre ssion: RNA was extracted using the RNeasy Mini Kit (74104, Qiagen) and quantified using a Nanodrop 2000c (Thermo Fisher Scientific). cDNA synthesis was performed using the RT2 First Strand Kit (330404, Qiagen). Real time PCR was carried out on an Applied Biosystems […] FAST cycler.
Neutral COMET assay: 1.0x10^5 cells per well were seeded in 6 well tissue culture plates and incubated at 37°C and 5% CO2 overnight. […] Fifty comets were scored per sample using Comet Assay III/IV image analysis software (Perceptive Instruments, Bury St Edmonds, UK). […]

Row | SMILES | cell cycle effect [1] | spheroid sensitivity to FEN1 inhibitor [2] | FEN1 mRNA expression after cisplatin [3]
1 | Cc1csc2c1c(=O)n(O)c(=O)n2-c1ccccc1 [PTPD, 3-hydroxy-5-methyl-1-phenylthieno [2,3 d]pyrimidine-2,4(1H,3H)-dione] | G2/M cell cycle arrest | hypersensitive to FEN1 inhibition | –
2 | N.N.[Cl][Pt][Cl] [cisplatin] | – | – | increased by day 1 and persisted at least until day 4
